Data published in patent US10696674B2, “Spirolactams as inhibitors of ROCK” (BRISTOL-MYERS SQUIBB COMPANY, priority 2016, dated 2020).

target: ROCK2 (Homo sapiens, UniProt O75116); test: ROCK2 assay (Caliper LABCHIP peptide phosphorylation); type: biochemical; conditions: 5 μM ATP, 1.5 μM peptide substrate
Protocol: The effectiveness of compounds of the present invention as ROCK inhibitors can be determined in a 30 μL assay containing 20 mM HEPES, pH 7.5, 20 mM MgCl2, 0.015% Brij-35, 4 mM DTT, 5 μM ATP and 1.5 μM peptide substrate (FITC-AHA-AKRRRLSSLRA-OH) (SEQ ID NO.1). Compounds were dissolved in DMSO so that the final concentration of DMSO was <2%, and the reaction was initiated with Rho kinase variants. After incubation, the reaction was terminated by the addition of EDTA and the phosphorylated and non-phosphorylated peptides separated using a LABCHIP® 3000 Reader (Caliper Life Sciences). […] Compounds were tested in dose-response format, and the inhibition of kinase activity was calculated at each concentration of compound. The inhibition data were fit using a curve-fitting program to determine the IC50; i.e., the concentration of compound required to inhibit 50% of kinase activity.
Representative Examples were tested in the ROCK2 assay described above and found having ROCK2 inhibitory activity. The ranges of the ROCK2 IC50 values are as follows: ROCK2 IC50: ++++ (<3 nM) +++ (3-30 nM) ++ (30-300 nM) + (300-2000 nM)

Chain of ROCK2 (O75116 whole entry, species assumed): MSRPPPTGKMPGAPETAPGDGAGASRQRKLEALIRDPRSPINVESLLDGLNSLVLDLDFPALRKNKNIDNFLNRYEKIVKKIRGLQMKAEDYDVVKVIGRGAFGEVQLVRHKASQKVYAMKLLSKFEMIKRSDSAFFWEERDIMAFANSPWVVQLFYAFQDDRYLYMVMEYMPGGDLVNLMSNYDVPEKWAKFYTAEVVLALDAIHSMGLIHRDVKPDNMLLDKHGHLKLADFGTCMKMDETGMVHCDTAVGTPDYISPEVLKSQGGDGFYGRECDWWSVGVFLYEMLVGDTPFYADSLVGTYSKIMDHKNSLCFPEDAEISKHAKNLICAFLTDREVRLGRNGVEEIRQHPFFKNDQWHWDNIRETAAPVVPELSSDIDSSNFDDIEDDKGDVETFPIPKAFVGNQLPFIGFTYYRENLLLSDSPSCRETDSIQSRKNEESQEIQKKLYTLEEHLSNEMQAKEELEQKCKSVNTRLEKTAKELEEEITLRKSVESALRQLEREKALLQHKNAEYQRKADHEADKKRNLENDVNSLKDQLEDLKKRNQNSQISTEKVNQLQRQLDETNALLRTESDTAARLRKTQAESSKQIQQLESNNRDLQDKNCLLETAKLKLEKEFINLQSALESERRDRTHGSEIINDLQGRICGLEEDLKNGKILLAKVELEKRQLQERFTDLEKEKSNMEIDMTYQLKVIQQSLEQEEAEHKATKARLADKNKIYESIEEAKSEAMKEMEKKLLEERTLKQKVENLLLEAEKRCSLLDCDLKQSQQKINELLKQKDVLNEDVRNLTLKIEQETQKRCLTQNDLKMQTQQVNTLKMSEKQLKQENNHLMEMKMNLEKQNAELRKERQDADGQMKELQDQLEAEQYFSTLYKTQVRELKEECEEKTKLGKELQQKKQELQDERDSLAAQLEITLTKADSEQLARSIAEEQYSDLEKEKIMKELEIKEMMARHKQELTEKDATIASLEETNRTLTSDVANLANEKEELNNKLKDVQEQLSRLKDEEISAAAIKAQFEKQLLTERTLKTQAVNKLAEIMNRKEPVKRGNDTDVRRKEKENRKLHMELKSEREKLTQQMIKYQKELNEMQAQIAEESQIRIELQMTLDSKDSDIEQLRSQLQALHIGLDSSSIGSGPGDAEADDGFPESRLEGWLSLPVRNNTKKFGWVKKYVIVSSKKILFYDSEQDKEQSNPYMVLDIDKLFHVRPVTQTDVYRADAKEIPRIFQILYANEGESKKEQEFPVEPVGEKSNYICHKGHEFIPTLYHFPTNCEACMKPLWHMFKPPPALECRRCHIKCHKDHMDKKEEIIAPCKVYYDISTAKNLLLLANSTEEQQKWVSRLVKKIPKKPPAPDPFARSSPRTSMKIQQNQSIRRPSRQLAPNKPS

Row | Compound | IC50 [µM]
1 | O=C1N(c2ccc(-c3cn[nH]c3)cc2)CCC12Cc1cc(F)ccc1N2 (single isomer, unassigned) [Example 9, 1′-(4-(1H-Pyrazol-4-yl)phenyl)-5-fluorospiro[indoline-2,3′-pyrrolidin]-2′-one] | 0.03 to 0.3
2 | O=C1N(c2ccc(-c3cn[nH]c3)cc2)CCC12Cc1ccccc1N2 (single isomer, unassigned) [Example 3, 1′-(4-(1H-Pyrazol-4-yl)phenyl)spiro[indoline-2,3′-pyrrolidin]-2′-one] | 0.03 to 0.3
3 | O=C1N(c2ccc(-c3cn[nH]c3)cc2)CCC12Cc1cc(F)ccc1N2 (single isomer, unassigned) [Example 8, 1′-(4-(1H-Pyrazol-4-yl)phenyl)-5-fluorospiro[indoline-2,3′-pyrrolidin]-2′-one] | 0.003 to 0.03
4 | COc1ccc2c(c1)NC1(CCN(c3ccc(-c4cn[nH]c4)cc3)C1=O)C2 (single isomer, unassigned) [Example 5, 1′-(4-(1H-Pyrazol-4-yl)phenyl)-6-methoxyspiro[indoline-2,3′-pyrrolidin]-2′-one] | < 0.003
5 | COc1nc(N2CCC3(Cc4ccc(F)cc4C3)C2=O)ccc1-c1cn[nH]c1 (single isomer, unassigned) [Example 17, 5-Fluoro-1′-(6-methoxy-5-(1H-pyrazol-4-yl)pyridin-2-yl)-1,3-dihydrospiro[indene-2,3′-pyrrolidin]-2′-one] | < 0.003
6 | COc1ccc2c(c1)NC1(CCN(c3ccc(-c4cn[nH]c4)cc3)C1=O)C2 (centres unmarked) [Example 4, 1′-(4-(1H-Pyrazol-4-yl)phenyl)-6-methoxyspiro[indoline-2,3′-pyrrolidin]-2′-one] | < 0.003
7 | O=C1N(c2ccc(-c3cn[nH]c3)cc2)CCC12Cc1ccc(F)cc1C2 (single isomer, unassigned) [Example 15, 1′-(4-(1H-Pyrazol-4-yl)phenyl)-5-fluoro-1,3-dihydrospiro[indene-2,3′-pyrrolidin]-2′-one] | 0.003 to 0.03
8 | O=C1N(c2ccc(-c3ccc4[nH]ncc4c3)cc2)CCC12Cc1ccccc1N2 (centres unmarked) [Example 13, 1′-(4-(1H-Indazol-5-yl)phenyl)spiro[indoline-2,3′-pyrrolidin]-2′-one] | 0.003 to 0.03
9 | O=C1N(c2ccc(-c3cn[nH]c3)cc2)CCC12Cc1cc(F)ccc1N2 (racemic) [Example 7, 1′-(4-(1H-Pyrazol-4-yl)phenyl)-5-fluorospiro[indoline-2,3′-pyrrolidin]-2′-one] | 0.003 to 0.03
10 | O=C1N(c2ccc(-c3cn[nH]c3)cc2)CCC12Cc1ccccc1C2 [Example 11, 1′-(4-(1H-Pyrazol-4-yl)phenyl)-1,3-dihydrospiro[indene-2,3′-pyrrolidin]-2′-one] | 0.003 to 0.03
11 | COc1nc(N2CCC3(Cc4ccccc4N3)C2=O)ccc1-c1cn[nH]c1 (centres unmarked) [Example 10, 1′-(6-methoxy-5-(1H-pyrazol-4-yl)pyridin-2-yl)spiro[indoline-2,3′-pyrrolidin]-2′-one] | < 0.003

Results, then the molecule that gave them:

Row | IC50 [µM] | Compound
12 | 0.3 to 2 | COc1ccc2c(c1)CC1(CCN(c3ccc(-c4cn[nH]c4)c(OC)n3)C1=O)C2 (single isomer, unassigned) [Example 19, 5-Methoxy-1′-(6-methoxy-5-(1H-pyrazol-4-yl)pyridin-2-yl)-1,3-dihydrospiro[indene-2,3′-pyrrolidin]-2′-one]
13 | < 0.003 | COc1ccc2c(c1)CC1(CCN(c3ccc(-c4cn[nH]c4)c(OC)n3)C1=O)C2 (single isomer, unassigned) [Example 20, 5-Methoxy-1′-(6-methoxy-5-(1H-pyrazol-4-yl)pyridin-2-yl)-1,3-dihydrospiro[indene-2,3′-pyrrolidin]-2′-one]
14 | < 0.003 | O=C1N(c2ccc(-c3cn[nH]c3)cc2)CCC12Cc1ccc(OCC3CC3)cc1N2 (single isomer, unassigned) [Example 42, 1′-(4-(1H-Pyrazol-4-yl)phenyl)-6-(cyclopropylmethoxy)spiro[indoline-2,3′-pyrrolidin]-2′-one]
15 | < 0.003 | COc1cc(N2CCC3(Cc4ccccc4N3)C2=O)ccc1-c1cn[nH]c1 (racemic) [Example 32, 1′-(3-methoxy-4-(1H-pyrazol-4-yl)phenyl)spiro[indoline-2,3′-pyrrolidin]-2′-one]
16 | < 0.003 | O=C1N(c2ccc(-c3cn[nH]c3)cc2)CC(CO)C12CCc1ccccc1N2 (centres unmarked) [Example 56, 1-(4-(1H-pyrazol-4-yl)phenyl)-4-(hydroxymethyl)-3′,4′-dihydro-1′H-spiro[pyrrolidine-3,2′-quinolin]-2-one]
17 | < 0.003 | COc1nc(N2CCC3(Cc4ccccc4C3)C2=O)ccc1-c1cn[nH]c1 [Example 23, 1′-(6-Methoxy-5-(1H-pyrazol-4-yl)pyridin-2-yl)-1,3-dihydrospiro[indene-2,3′-pyrrolidin]-2′-one]
18 | 0.03 to 0.3 | O=C1N(c2ccc(-c3cn[nH]c3)cc2)CCC12Cc1ccccc1O2 (single isomer, unassigned) [Example 30, 1′-(4-(1H-Pyrazol-4-yl)phenyl)-3H-spiro[benzofuran-2,3′-pyrrolidin]-2′-one]
19 | 0.003 to 0.03 | O=C1N(c2ccc(-c3ccncc3)cc2)CCC12Cc1ccccc1N2 (centres unmarked) [Example 45, 1′-(4-(Pyridin-4-yl)phenyl)spiro[indoline-2,3′-pyrrolidin]-2′-one]
20 | < 0.003 | CC1(C)c2ccccc2NC12CCN(c1ccc(-c3cn[nH]c3)cc1)C2=O (centres unmarked) [Example 51, 1′-(4-(1H-pyrazol-4-yl)phenyl)-3,3-dimethylspiro[indoline-2,3′-pyrrolidin]-2′-one]
21 | 0.003 to 0.03 | Cc1cccc2c1CC1(CCN(c3ccc(-c4cn[nH]c4)cc3)C1=O)N2 (centres unmarked) [Example 27, 1′-(4-(1H-Pyrazol-4-yl)phenyl)-4-methylspiro[indoline-2,3′-pyrrolidin]-2′-one]
22 | 0.03 to 0.3 | O=C1N(c2ccc(-c3cn[nH]c3)cc2)CCC12Cc1ncccc1N2 (centres unmarked) [Example 28, 1-(4-(1H-Pyrazol-4-yl)phenyl)-1′,3′-dihydrospiro[pyrrolidine-3,2′-pyrrolo[3,2-b]pyridin]-2-one]
23 | < 0.003 | COc1cc(N2CCC3(Cc4ccccc4N3)C2=O)ccc1-c1cn[nH]c1 (single isomer, unassigned) [Example 34, 1′-(3-methoxy-4-(1H-pyrazol-4-yl)phenyl)spiro[indoline-2,3′-pyrrolidin]-2′-one]
24 | < 0.003 | O=C1N(c2ccc(-c3cn[nH]c3)cc2)CCC12Cc1ccccc1O2 (racemic) [Example 29, 1′-(4-(1H-Pyrazol-4-yl)phenyl)-3H-spiro[benzofuran-2,3′-pyrrolidin]-2′-one]
25 | 0.03 to 0.3 | O=C1N(c2ccc(-c3cn[nH]c3)cc2)CCC12Cc1ccc(OCC3CC3)cc1N2 (single isomer, unassigned) [Example 43, 1′-(4-(1H-Pyrazol-4-yl)phenyl)-6-(cyclopropylmethoxy)spiro[indoline-2,3′-pyrrolidin]-2′-one]

test system: ROCK; test: not given; conditions: control rats; cited from earlier work

Row | Compound | blood pressure
26 | C[C@@H](N)[C@H]1CC[C@H](C(=O)Nc2ccncc2)CC1 [Example Y-27632, Y-27632] | only a minor effect on blood pressure

same assay, conditions: spontaneously hypertensive rat, renal hypertensive rat and deoxycortisone acetate salt hypertensive rat models; cited from earlier work

Row | Compound | blood pressure
27 | C[C@@H](N)[C@H]1CC[C@H](C(=O)Nc2ccncc2)CC1 [Example Y-27632, Y-27632] | significantly decrease blood pressure

test system: ROCK; test: not given; conditions: rats, balloon injury model; cited from earlier work

Row | Compound | neointimal formation
28 | C[C@@H](N)[C@H]1CC[C@H](C(=O)Nc2ccncc2)CC1 [Example Y-27632, Y-27632] | inhibited neointimal formation

test system: ROCK; test: not given; conditions: long term treatment; cited from earlier work

Row | Compound | coronary constrictive remodeling | coronary stenosis
29 | O=S(=O)(c1cccc2cnccc12)N1CCCNCC1 [fasudil] | promote a regression of coronary constrictive remodeling | progressively reduce coronary stenosis

test system: ROCK; test: not given; conditions: rat, in vivo; cited from earlier work

Row | Compound | infarct size and neurologic deficit
30 | O=S(=O)(c1cccc2cnccc12)N1CCCNCC1 [fasudil] | reduce both the infarct size and neurologic deficit

test system: ROCK; test: not given; conditions: rat, in vivo; cited from earlier work; remark: another data set of the same source

Row | Compound | ventricular hypertrophy, fibrosis and function
31 | C[C@@H](N)[C@H]1CC[C@H](C(=O)Nc2ccncc2)CC1 [Example Y-27632, Y-27632] | improve ventricular hypertrophy, fibrosis and function
